Results taken from patent US20240150362A1, “Substituted Pyrrolotriazines” (Molecure S.A., priority 2022, published 2024).
Structures can show the parent of a compound that is named as a salt.

Target: T1, full-length USP7 (Homo sapiens, UniProt Q93009)
T1 construct: A 45 μl reaction volume containing full-length USP7 (0.5-1.0 nM)
Assay: Enzymatic assay to determine % inhibition of USP7 activity at 1 μM test compound (Ubiquitin-Rhodamine 110 cleavage)
Format: biochemical
Conditions: 1 μM of the test compound; given where IC50 has not been determined yet; mean of two repetitions
Procedure, shortened: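 Full-length USP7 (0.5-1.0 nM) was preincubated 15 min with DTT in HEPES pH 7.5 buffer, and compound was added at a final 1 μM. Ubiquitin-Rhodamine 110 (0.5 μM final) was then cleaved for 30-60 min at 25° C., read at 485/535 nm. % inhibition is the mean of two repetitions.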

T1 sequence (Q93009 whole entry): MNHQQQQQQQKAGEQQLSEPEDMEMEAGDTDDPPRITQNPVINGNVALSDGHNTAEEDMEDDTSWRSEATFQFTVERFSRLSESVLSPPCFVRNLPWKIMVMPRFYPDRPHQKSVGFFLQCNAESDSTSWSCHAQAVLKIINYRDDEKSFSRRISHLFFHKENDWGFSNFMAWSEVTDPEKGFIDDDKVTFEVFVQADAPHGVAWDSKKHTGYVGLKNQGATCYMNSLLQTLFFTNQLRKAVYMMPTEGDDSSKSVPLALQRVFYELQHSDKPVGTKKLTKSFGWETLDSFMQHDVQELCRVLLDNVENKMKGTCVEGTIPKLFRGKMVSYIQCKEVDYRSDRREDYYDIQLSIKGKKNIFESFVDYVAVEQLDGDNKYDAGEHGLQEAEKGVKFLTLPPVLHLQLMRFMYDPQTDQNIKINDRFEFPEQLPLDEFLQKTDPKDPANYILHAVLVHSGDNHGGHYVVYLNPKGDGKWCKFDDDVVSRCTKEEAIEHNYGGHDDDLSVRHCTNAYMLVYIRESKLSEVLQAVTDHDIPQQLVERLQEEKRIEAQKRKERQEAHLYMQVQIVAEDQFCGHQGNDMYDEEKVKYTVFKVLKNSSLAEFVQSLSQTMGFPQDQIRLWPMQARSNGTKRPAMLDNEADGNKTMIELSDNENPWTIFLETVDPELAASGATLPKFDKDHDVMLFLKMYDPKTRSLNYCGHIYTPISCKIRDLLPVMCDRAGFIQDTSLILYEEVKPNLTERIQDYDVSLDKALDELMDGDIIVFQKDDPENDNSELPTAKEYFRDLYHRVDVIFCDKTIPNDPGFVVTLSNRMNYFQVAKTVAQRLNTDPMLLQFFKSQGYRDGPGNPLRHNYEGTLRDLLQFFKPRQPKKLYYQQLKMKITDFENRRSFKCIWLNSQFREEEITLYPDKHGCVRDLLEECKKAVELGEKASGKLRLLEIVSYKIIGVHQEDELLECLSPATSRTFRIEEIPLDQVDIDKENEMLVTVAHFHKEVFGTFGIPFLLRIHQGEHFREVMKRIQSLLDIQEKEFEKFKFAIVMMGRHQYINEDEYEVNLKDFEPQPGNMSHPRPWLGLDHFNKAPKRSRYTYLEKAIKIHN

Row | inhibition at 1 µM | Compound
1 | 20 to 49% | Cc1cc(Cl)cc(-c2ncnn3cc(CN4C(=O)C5C(C4=O)C5(C)C)cc23)c1CN1CCC2(CC1)CNC2 (centres unmarked) [Example 102, 3-((4-(2-((2,7-diazaspiro[3.5]nonan-7-yl)methyl)-5-chloro-3-methylphenyl)pyrrolo[2,1-f][1,2,4]triazin-6-yl)methyl)-6,6-dimethyl-3-azabicyclo[3.1.0]hexane-2,4-dione hydrochloride]
2 | 50 to 70% | CN[C@H]1CCCN(c2ccc(Cl)cc2-c2ncnn3cc(CN4C(=O)C5C(C4=O)C5(C)C)cc23)C1 (stereo partly drawn) [Example 112, 3-((4-(5-chloro-2-((S)-3-(methylamino)piperidin-1-yl)phenyl)pyrrolo[2,1-f][1,2,4]triazin-6-yl)methyl)-6,6-dimethyl-3-azabicyclo[3.1.0]hexane-2,4-dione hydrochloride]
3 | 50 to 70% | Cn1ccc(=O)n(Cc2cc3c(-c4cc(Cl)cc(F)c4CC4CNCCO4)ncnn3c2)c1=O (centres unmarked) [Example 116, 3-((4-(5-chloro-3-fluoro-2-(morpholin-2-ylmethyl)phenyl)pyrrolo[2,1-f][1,2,4]triazin-6-yl)methyl)-1-methylpyrimidine-2,4(1H,3H)-dione hydrochloride]
4 | 20 to 49% | Cc1cc(Cl)cc(-c2ncnn3cc(Cn4c(=O)ccn(C)c4=O)cc23)c1CC1CNC[C@H](C)O1 (stereo partly drawn) [Example 122, 3-((4-(5-chloro-3-methyl-2-(((6S)-6-methylmorpholin-2-yl)methyl)phenyl)pyrrolo[2,1-f][1,2,4]triazin-6-yl)methyl)-1-methylpyrimidine-2,4(1H,3H)-dione dihydrochloride]
5 | < 20% | O=c1cc[nH]c(=O)n1Cc1cc2c(-c3cc(Cl)cc4ccn(CC5(F)CCNCC5)c34)nc(Cl)nn2c1 [Example 123, 3-((2-chloro-4-(5-chloro-1-((4-fluoropiperidin-4-yl)methyl)-1H-indol-7-yl)pyrrolo[2,1-f][1,2,4]triazin-6-yl)methyl)pyrimidine-2,4(1H,3H)-dione hydrochloride]
6 | > 70% | CC(C)n1ccc(=O)n(Cc2cc3c(-c4cc(Cl)cc5ccn(CC6(F)CCNCC6)c45)ncnn3c2)c1=O [Example 127, 3-((4-(5-chloro-1-((4-fluoropiperidin-4-yl)methyl)-1H-indol-7-yl)pyrrolo[2,1-f][1,2,4]triazin-6-yl)methyl)-1-isopropylpyrimidine-2,4(1H,3H)-dione hydrochloride]
7 | 20 to 49% | Cc1cc(F)cc(-c2ncnn3cc(Cn4c(=O)ccn(C)c4=O)cc23)c1CC1CNC[C@H](C)O1 (stereo partly drawn) [Example 128, 3-((4-(5-fluoro-3-methyl-2-(((6S)-6-methylmorpholin-2-yl)methyl)phenyl)pyrrolo[2,1-f][1,2,4]triazin-6-yl)methyl)-1-methylpyrimidine-2,4(1H,3H)-dione hydrochloride]
8 | < 20% | Cc1nc(C(F)(F)F)cc(-c2ncnn3cc(Cn4c(=O)ccn(C)c4=O)cc23)c1OC1CCCNC1 (centres unmarked) [Example 129, 1-methyl-3-((4-(2-methyl-3-(piperidin-3-yloxy)-6-(trifluoromethyl)pyridin-4-yl)pyrrolo[2,1-f][1,2,4]triazin-6-yl)methyl)pyrimidine-2,4(1H,3H)-dione hydrochloride]
